Data taken from PMC8035258 (ChemMedChem, 2021).
Read-outs that look alike come from different tables or passages of the source.

Tests used:
TNBC MDA-MB-468 cells = test: MTS cytotoxicity assay in MDA-MB-468 cells; type: cell-based; details: for SI (Selectivity Index): MDA-MB-468 over HEK293 cells; for IC50: read-out: MDA-MB-468 IC50, 72 hours, mean ±SD of n=3
[1] = system: low tumorigenic human endothelial kidney (HEK293) cells; test: MTS cytotoxicity assay in HEK293 cells; type: cell-based; details: read-out: HEK293 IC50
[2] = biological target: Mitochondrial respiratory complex II (Mus musculus, UniProt Q8K2B3+Q9CQA3+Q9CXV1+Q9CZB0); test: Complex II inhibition assay; type: biochemical; details: for inhibition at 100 µM: read-out: % Inhibition CII (100 μM), 100 μM; for inhibition at 100 µM / % Inhibition CII (100 μM): mouse liver mitochondria, mean ±SD of n = 4
[3] = system: 22Rv1 prostate cancer cells; test: MTS cytotoxicity assay in 22Rv1 prostate cancer cells; type: cell-based; details: for reduction of 22Rv1 cell viability: 100 μM, 48 hr treatment, MTS
CII = details: read-out: CII IC50, cited from earlier work

Sequence of Mitochondrial respiratory complex II (Q8K2B3 43-664): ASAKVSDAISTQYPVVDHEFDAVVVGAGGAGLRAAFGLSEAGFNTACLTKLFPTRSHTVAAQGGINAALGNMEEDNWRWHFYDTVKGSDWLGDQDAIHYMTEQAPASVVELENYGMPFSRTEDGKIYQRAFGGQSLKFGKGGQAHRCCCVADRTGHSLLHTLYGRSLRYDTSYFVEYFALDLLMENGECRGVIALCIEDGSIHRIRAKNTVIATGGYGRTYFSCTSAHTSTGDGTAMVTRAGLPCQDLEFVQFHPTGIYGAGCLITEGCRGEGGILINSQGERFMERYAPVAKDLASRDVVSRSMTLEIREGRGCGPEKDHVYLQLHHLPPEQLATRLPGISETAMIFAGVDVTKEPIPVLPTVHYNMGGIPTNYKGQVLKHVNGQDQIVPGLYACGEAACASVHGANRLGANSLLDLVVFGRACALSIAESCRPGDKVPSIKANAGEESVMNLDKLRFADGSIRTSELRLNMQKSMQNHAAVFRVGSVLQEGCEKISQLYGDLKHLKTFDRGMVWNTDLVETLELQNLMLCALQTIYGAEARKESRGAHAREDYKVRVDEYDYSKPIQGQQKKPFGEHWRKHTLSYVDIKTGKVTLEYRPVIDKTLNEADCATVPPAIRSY
Sequence of Mitochondrial respiratory complex II (Q9CQA3 31-282): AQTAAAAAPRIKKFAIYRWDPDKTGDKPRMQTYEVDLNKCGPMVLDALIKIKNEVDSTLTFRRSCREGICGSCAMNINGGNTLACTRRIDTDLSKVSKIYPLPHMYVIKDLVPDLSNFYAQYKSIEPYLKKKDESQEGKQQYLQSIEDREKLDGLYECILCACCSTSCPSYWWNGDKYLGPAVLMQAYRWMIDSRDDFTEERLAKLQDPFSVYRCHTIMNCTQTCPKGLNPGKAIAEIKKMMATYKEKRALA
Sequence of Mitochondrial respiratory complex II (Q9CZB0 30-169): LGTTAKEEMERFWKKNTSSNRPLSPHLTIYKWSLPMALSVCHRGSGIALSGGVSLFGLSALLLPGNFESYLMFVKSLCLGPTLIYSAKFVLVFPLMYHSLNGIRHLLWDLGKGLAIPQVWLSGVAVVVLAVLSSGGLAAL
Sequence of Mitochondrial respiratory complex II (Q9CXV1 57-159): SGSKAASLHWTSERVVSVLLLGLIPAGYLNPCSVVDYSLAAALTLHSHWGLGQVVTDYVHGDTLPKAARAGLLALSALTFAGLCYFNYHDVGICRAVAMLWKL

inhibition at 100 µM [2] [%]	Compound	SI (Selectivity Index) (TNBC MDA-MB-468 cells)	IC50 ([1]; Homo sapiens, HEK293, 72 h) [µM]	reduction of 22Rv1 cell viability [3]	also measured
81 ± 6.9	O=S1(=O)NC(=S)Nc2cc(Cl)ccc21 [Compound 12b, 6-Chloro-3-thioxo-3,4-dihydro-2H-1,2,4-benzothiadiazine 1,1-dioxide]	–	–	12%	IC50 [2]: 11.9 ± 3.3 µM
37 ± 4.7	O=S1(=O)N=C(NCCc2ccccc2)Nc2ccc(Br)cc21 [Compound 18c, 7-Bromo-3-(phenethylamino)-4H-benzo[e][1,2,4]thiadiazine 1,1-dioxide]	3.4	63.1 ± 1.8	–	–
14 ± 10.4	O=S1(=O)N=C(NCCCc2ccccc2)Nc2ccc(F)cc21 [Compound 23a, 7-Fluoro-3-((3-phenylpropyl)amino)-4H-benzo[e][1,2,4]thiadiazine 1,1-dioxide]	3.12	181 ± 7.3	–	–
22 ± 9.9	CC(NC1=NS(=O)(=O)c2cc(F)ccc2N1)c1ccccc1 (stereo not shown) [Compound 24a, 7-Fluoro-3-((1-phenylethyl)amino)-4H-benzo[e][1,2,4]thiadiazine 1,1-dioxide]	10.2	42.6 ± 5.9	34%	–
51 ± 13.9	CC(NC1=NS(=O)(=O)c2ccc(Cl)cc2N1)c1ccccc1 (stereo not shown) [Compound 24b, 6-Chloro-3-((1-phenylethyl)amino)-4H-benzo[e][1,2,4]thiadiazine 1,1-dioxide]	2.72	118 ± 22.3	50%	IC50 [2]: 89 ± 10.4 µM
55 ± 8.2	CC(NC1=NS(=O)(=O)c2cc(Br)ccc2N1)c1ccccc1 (stereo not shown) [Compound 24c, 7-Bromo-3-((1-phenylethyl)amino)-4H-benzo[e][1,2,4]thiadiazine 1,1-dioxide]	11	32.2 ± 1.5	70%	IC50 [2]: 79.8 ± 4.1 µM; IC50 ([3]; Homo sapiens, 22Rv1, read-out: 22Rv1 IC50): 38.9 ± 3.2 µM
21	O=S1(=O)N=C(NCc2ccc(OC(F)(F)F)cc2)Nc2ccc(Br)cc21 [Compound 30c, 7-Bromo-3-((4-(trifluoromethoxy)benzyl)amino)-4H-benzo[e][1,2,4] thiadiazine 1,1-dioxide]	2.93	52.9 ± 1.8	45%	% Inhibition CII (100 μM) [2]: 22 ±21.1%; IC50 (TNBC MDA-MB-468 cells): 18 ± 1.4 µM
38 ± 7.8	C=CCNC1=NS(=O)(=O)c2cc(F)ccc2N1 [Compound 32a, 3-(Allylamino)-7-fluoro-4H-benzo[e][1,2,4]thiadiazine 1,1-dioxide]	–	–	24%	–
45 ± 17.1	O=S1(=O)N=C(NCCc2ccc(F)cc2)Nc2ccc(Br)cc21 [Compound 33c, 7-Bromo-3-((4-fluorophenethyl)amino)-4H-benzo[e][1,2,4]thiadiazine 1,1-dioxide]	2.42	48.7 ± 12	–	–
17 ± 8.2	O=S1(=O)N=C(NCCc2c[nH]c3ccccc23)Nc2ccc(F)cc21 [Compound 36a, 3-((2-(1H-indol-3-yl)ethyl)amino)-7-fluoro-4H-benzo[e][1,2,4]thiadiazine 1,1-dioxide]	–	–	30%	–
25 ± 19	O=S1(=O)N=C(NCCc2c[nH]c3ccccc23)Nc2cc(Cl)ccc21 [Compound 36b, 3-((2-(1H-indol-3-yl)ethyl)amino)-6-chloro-4H-benzo[e][1,2,4]thiadiazine 1,1-dioxide]	2.66	41.3 ± 5.2	–	–
23 ± 12.3	O=S1(=O)N=C(NCc2ccc(SC(F)(F)F)cc2)Nc2ccc(F)cc21 [Compound 38a, 7-Fluoro-3-((4-((trifluoromethyl)thio)benzyl)amino)-4H-benzo[e] [1,2,4]thiadiazine 1,1-dioxide]	–	–	–	–
18 ± 6.2	COc1ccc(CCNC2=NS(=O)(=O)c3cc(F)ccc3N2)cc1 [Compound 39a, 7-Fluoro-3-((4-methoxyphenethyl)amino)-4H-benzo[e][1,2,4]thiadiazine 1,1-dioxide]	3.27	123 ± 21.4	–	–
0	CC(C)NC1=NS(=O)(=O)c2ccccc2N1C [Compound 43d, 3-(Isopropylamino)-4-methyl-4H-benzo[e][1,2,4]thiadiazine 1,1-dioxide]	–	–	–	–

Further lines, the molecule ahead of its results:

Compound	inhibition at 100 µM [2] [%]	SI (Selectivity Index) (TNBC MDA-MB-468 cells)	IC50 ([1]; Homo sapiens, HEK293, 72 h) [µM]	reduction of 22Rv1 cell viability [3]	also measured
O=c1[nH]cc(F)c(=O)[nH]1 [5-Fluorouracil, reference compound]	–	1.03	7.06 ± 0.8	–	SI (Selectivity Index) (TNBC MDA-MB-468 cells; listed as 5-fluorouracil): 1
O=S1(=O)NC(=S)Nc2ccc(Br)cc21 [Compound 12c, 7-Bromo-3-thioxo-3,4-dihydro-2H-1,2,4-benzothiadiazine 1,1-dioxide]	55 ± 15.2	–	–	16%	IC50 [2]: 37 ± 2.4 µM
CC(C)C(C)NC1=NS(=O)(=O)c2cc(Br)ccc2N1 (stereo not shown) [Compound 15c, 7-Bromo-3-((3-methylbutan-2-yl)amino)-4Hbenzo[e][1,2,4]thiadiazine 1,1-dioxide]	19 ± 10.4	1.75	35.7 ± 1.6	–	–
O=S1(=O)N=C(NCc2ccc(Cl)cc2)Nc2cc(Cl)ccc21 [Compound 16b, 6-Chloro-3-((4-chlorobenzyl)amino)-4H-benzo[e][1,2,4]thiadiazine 1,1-dioxide]	–	–	–	10%	–
O=S1(=O)N=C(NCc2ccc(Cl)cc2)Nc2ccc(Br)cc21 [Compound 16c, 7-Bromo-3-((4-chlorobenzyl)amino)-4H-benzo[e][1,2,4]thiadiazine 1,1-dioxide dioxide]	–	–	–	–	% Inhibition CII (100 μM) [2]: 45 ±5.6%; IC50 (TNBC MDA-MB-468 cells): 12.5 ± 0.3 µM; IC50 ([1]; 72 hours, mean ±SD of n=3): 43.1 ± 3.2 µM
COc1ccc(CNC2=NS(=O)(=O)c3cc(Br)ccc3N2)cc1 [Compound 20c, 7-Bromo-3-((4-methoxybenzyl)amino)-4H-benzo[e][1,2,4]thiadiazine 1,1-dioxide]	64 ± 15.3	3.23	88 ± 12.3	41%	IC50 [2]: 79.7 ± 4 µM
O=S1(=O)N=C(NC2CCCC2)Nc2cc(Cl)ccc21 [Compound 22b, 6-Chloro-3-(cyclopentylamino)-4H-benzo[e][1,2,4]thiadiazine 1,1-dioxide]	–	–	–	34%	–
O=S1(=O)N=C(NCCCc2ccccc2)Nc2ccc(Br)cc21 [Compound 23c, 7-Bromo-3-((3-phenylpropyl)amino)-4H-benzo[e][1,2,4]thiadiazine 1,1-dioxide]	47	7.75	71.8 ± 8.2	42%	% Inhibition CII (100 μM) [2]: 46 ±13.4%
CC(NC1=NS(=O)(=O)c2ccccc2N1)c1ccccc1 (stereo not shown) [Compound 24d, 3-((1-Phenylethyl)amino)-4H-benzo[e][1,2,4]thiadiazine 1,1-dioxide]	0	3.92	48.6 ± 1.7	approximately 30%	–
O=S1(=O)N=C(NCc2ccc(C(F)(F)F)cc2)Nc2cc(Cl)ccc21 [Compound 25b, 6-Chloro-3-((4-(trifluoromethyl)benzyl)amino)-4Hbenzo[e][1,2,4]thia-d iazine 1,1-dioxide]	–	–	–	–	% Inhibition CII (100 μM) [2]: 19 ±10.1%; IC50 (TNBC MDA-MB-468 cells): 25.1 ± 3.8 µM
O=S1(=O)N=C(NCc2ccc(C(F)(F)F)cc2)Nc2ccc(Br)cc21 [Compound 25c, 7-Bromo-3-((4-(trifluoromethyl)benzyl)amino)-4H-benzo[e][1,2,4]thiadiazine 1,1-dioxide]	–	–	57.5 ± 4.7	34%	–
COc1ccccc1CNC1=NS(=O)(=O)c2cc(F)ccc2N1 [Compound 26a, 7-Fluoro-3-((2-methoxybenzyl)amino)-4H-benzo[e][1,2,4]thiadiazine 1,1-dioxide]	27 ± 5.6	3.03	47.6 ± 2	–	–
COc1ccccc1CNC1=NS(=O)(=O)c2cc(Br)ccc2N1 [Compound 26c, 7-Bromo-3-((2-methoxybenzyl)amino)-4H-benzo[e][1,2,4]thiadiazine 1,1-dioxide]	44 ± 12.3	4	54.4 ± 4.2	–	–
O=S1(=O)N=C(NCc2ccc(OC(F)(F)F)cc2)Nc2ccccc21 [Compound 30d, 3-((4-(Trifluoromethoxy)benzyl)amino)-4H-benzo[e][1,2,4]thiadiazine 1,1-dioxide]	7 ± 6.2	–	–	approximately 30%	–
O=S1(=O)N=C(NCCc2cccc(C(F)(F)F)c2)Nc2ccc(F)cc21 [Compound 41a, 7-Fluoro-3-((3-(trifluoromethyl)phenethyl)amino)-4H-benzo[e][1,2,4] thiadiazine 1,1-dioxide]	20 ± 5.2	–	–	–	–
CSC1=NS(=O)(=O)c2cc(F)ccc2N1C [Compound 42a, 7-Fluoro-4-methyl-3-(methylthio)-4H-benzo[e][1,2,4]thiadiazine 1,1-dioxide]	6 ± 13.4	–	–	–	–
CSC1=NS(=O)(=O)c2ccccc2N1C [Compound 42d, 4-Methyl-3-(methylthio)-4H-benzo[e][1,2,4]thiadiazine 1,1-dioxide]	0	–	–	–	–
O=C(O)CC(=O)O [Malonate]	–	–	–	–	IC50 (CII; competitive CII inhibitor): 40 µM
O=C(CC(=O)C(F)(F)F)c1cccs1 [TFFA, Thenoyltrifluoroacetone]	–	–	–	–	IC50 (CII; control compound in CII assays): 30 µM
Cc1c(C)c2c(c(C)c1OC(=O)CCC(=O)O)CC[C@@](C)(CCC[C@H](C)CCC[C@H](C)CCCC(C)C)O2 [α-TOS, α -Tocopheryl succinate]	–	–	–	–	IC50 (CII): 42 µM
